These results are taken from patent US11530237B2, “Compositions and methods for treating CNS disorders” (Sage Therapeutics, Inc., priority 2014, dated 2022).

One assay has as its target α1β2γ2 GABAA receptors (Homo sapiens (Human), UniProt P14867+P47870). The experiment in a line: Patch clamp electrophysiology (QPatch) of recombinant α1β2γ2 GABAA receptors in LTK cells. The class given is cell-based. As to conditions: 10 μM test article, GABA EC20 = 2 μM; for Emax at 10 µM: read-out: GABA (α1β2γ2) Qpatch in Ltk, % efficacy at 10 μM. As for the experimental part:
(§1) Cellular electrophysiology is used to measure the pharmacological properties of our GABAA receptor modulators in heterologous cell systems. Each compound is tested for its ability to affect GABA mediated currents at a suhmaximal agonist dose (GABA EC20=2 μM). LTK cells are stably transfected with the α1β2γ2 subunits of the GABA receptor and CHO cells are transiently transfected with the α4β3δ subunits via the Lipofecatamine method. Cells were passaged at a confluence of about 50-80% and then seeded onto 35 mm sterile culture dishes containing 2 ml culture complete medium without antibiotics or antimycotics. Confluent clusters of cells are electrically coupled (Pritchett et al., Science, 1988, 242, 1306-1308). Because responses in distant cells are not adequately voltage clamped and because of uncertainties about the extent of coupling (Verdoom et al., Neuron 1990, 4, 919-928), cells were cultivated at a density that enables the recording of single cells (without visible connections to other cells).
(§2) Whole cell currents were measured with HEKA EPC-10 amplifiers using PatchMaster software or by using the high throughput QPatch platform (Sophion). Bath solution for all experiments contained (in mM): NaCl 137 mM, KCl 4 mM, CaCl2 1.8 mM, MgCl2 1 mM, HEPES 10 mM, D-Glucose 10 mM, pH (NaOH) 7.4. In some cases 0.005% cremophor was also added. Intracellular (pipette) solution contained: KCl 130 mM, MgCl2 1 mM, Mg-ATP 5 mM, HEPES 10 mM, EGTA 5 mM, pH 7.2. During experiments, cells and solutions were maintained at room temperature (19° C.-30° C.). For manual patch clamp recordings, cell culture dishes were placed on the dish holder of the microscope and continuously perfused (1 ml/min) with bath solution. After formation of a Gigaohm seal between the patch electrodes and the cell (-ipette resistance range: 2.5 MΩ-6.0 MΩ; seal resistance range:>1 GΩ) the cell membrane across the pipette tip was ruptured to assure electrical access to the cell interior (whole-cell patch-configuration). For experiments using the QPatch system, cells were transferred as suspension to the QPatch system in the bath solution and automated whole cell recordings were performed.
(§3) Cells were voltage clamped at a holding potential of −80 mV. For the analysis of test articles, GABA receptors were stimulated by 2 μM GABA after sequential pre-incubation of increasing concentrations of the test article. Pre-incubation duration was 30 s and the duration of the GABA stimulus was 2s. Test articles were dissolved in DMSO to form stock solutions (10 mM). Test articles were diluted to 0.01, 0.1, 1, and 10 μM in bath solution. All concentrations of test articles were tested on each cell. The relative percentage potentiation was defined as the peak amplitude in response to GABA EC20 in the presence of the test article divided by the peak amplitude in response to GABA EC20 alone, multiplied by 100. For Table 2. GABAA receptors α1β2γ2 and α4β3δ% efficacy: “A” 10-100, “B”>100-500, “C”>500; D indicates the data is not available or has not been determined.
(In patch-clamp work, channel activity is measured electrically.)

The target in a further assay is α4β3δ GABAA receptors (Homo sapiens (Human), UniProt P28472+P48169). The experiment in a line: Patch clamp electrophysiology (manual patch) of recombinant α4β3δ GABAA receptors in CHO cells. Conditions: 10 μM test article, GABA EC20 = 2 μM, read-out: GABA (α4β3δ) Manual patch in CHO, % efficacy at 10 μM. The class given is cell-based. How it is done: as §1, §2, §3

The target in assay [1] is [35S]-TBPS binding, rat brain cortical membranes. Briefly: Steroid inhibition of TBPS binding ([35S]-TBPS radioligand displacement). As to conditions: 3 nM [35S]-TBPS, 5 μM GABA. As for the experimental part:
TBPS binding assays using rat brain cortical membranes in the presence of 5 μM GABA has been described (Gee et al, J. Pharmacol. Exp. Then 1987, 241, 346-353; Hawkinson et al, Mol. Pharmacol. 1994, 46, 977-985; Lewin, A. H et al., Mol. Pharmacol. 1989, 35, 189-194).
Briefly, cortices are rapidly removed following decapitation of carbon dioxide-anesthetized Sprague-Dawley rats (200-250 g). The cortices are homogenized in 10 volumes of […] using a glass/teflon homogenizer and centrifuged at 1500×g for 10 min at 4° C. The resultant supernatants are centrifuged at 10,000×g for 20 min at 4° C. to obtain the P2 pellets. The P2 pellets are resuspended in 200 mM NaCl/50 mM Na—K phosphate pH 7.4 buffer and centrifuged at 10,000×g for 10 min at 4° C. This washing procedure is repeated twice and the pellets are resuspended in 10 volumes of buffer. Aliquots (100 μL) of the membrane suspensions are incubated with 3 nM [^35S]-TBPS and 5 μL aliquots of test drug dissolved in dimethyl sulfoxide (DMSO) (final 0.5%) in the presence of 5 μM GABA. The incubation is brought to a final volume of 1.0 mL with buffer. […] Following a 90 min incubation at room temp, the assays are terminated by filtration through glass fiber filters (Schleicher and Schuell No. 32) using a cell harvester (Braudel) and rinsed three times with ice-cold buffer. Filter bound radioactivity is measured by liquid scintillation spectrometry. Non-linear curve fitting of the overall data for each drug averaged for each concentration is done using Prism (GraphPad).
Various compounds are or can be screened to determine their potential as modulators of [^35S]-TBPS binding in vitro. These assays are or can be performed in accordance with the above discussed procedures.
On the technique in general: Displacement assays read how much labelled ligand stays bound in the presence of the test substance.

As to `CO[C@H]1C[C@@]2(C)[C@@H](CC[C@@H]3[C@@H]2CC[C@]2(C)[C@@H](C(=O)Cn4nccn4)CC[C@@H]32)C[C@@H]1O` [Compound 2], the Emax at 10 µM on α1β2γ2 GABAA receptors and on α4β3δ GABAA receptors was 100 to 500% in each case.

Usually IC50 stands for the concentration needed to halve the response being measured. For `C[C@@]1(O)CC[C@@]2(C)[C@@H](CC[C@@H]3[C@@H]2CC[C@]2(C)[C@@H](C(=O)Cn4nc5ccc(F)c(F)c5n4)CC[C@@H]32)C1` [Compound 108, 2-(4,5-difluoro-2H-benzo[d][1,2,3]triazol-2-yl)-1-((3R,5S,8R,9S,10S,13S,14S,17S)-3-hydroxy-3,10,13-trimethylhexadecahydro-1H-cyclopenta[a]phenanthren-17-yl)ethanone], the Emax at 10 µM on α1β2γ2 GABAA receptors lay within 100 to 500%. Further, the IC50 in assay [1] is 0.01 to 0.05 µM.

For `CC(=O)Nc1cnn(CC(=O)[C@H]2CC[C@H]3[C@@H]4CC[C@H]5C[C@](C)(O)CC[C@]5(C)[C@H]4CC[C@]23C)c1` [Compound 153, N-(1-(2-((3R,5S,8R,9S,10S,13S,14S,17S)-3-hydroxy-3,10,13-trimethylhexadecahydro-1H-cyclopenta[a]phenanthren-17-yl)-2-oxoethyl)-1H-pyrazol-4-yl)acetamide], the Emax at 10 µM on α1β2γ2 GABAA receptors was 100 to 500%. The compound further showed an IC50 in assay [1] of 0.1 to 0.5 µM.

Consider `C[C@@]1(O)CC[C@@]2(C)[C@@H](CC[C@@H]3[C@@H]2CC[C@]2(C)[C@@H](C(=O)Cn4nc5cc(F)cc(F)c5n4)CC[C@@H]32)C1` [Compound 234], for which the Emax at 10 µM at α4β3δ GABAA receptors was 100 to 500%.

For `C[C@@]1(O)CC[C@@]2(C)[C@@H](CC[C@@H]3[C@@H]2CC[C@]2(C)[C@@H](C(=O)Cn4cc(N)cn4)CC[C@@H]32)C1` [Compound 152, 2-(4-amino-1H-pyrazol-1-yl)-1-((3R,5S,8R,9S,10S,13S,14S,17S)-3-hydroxy-3,10,13-trimethylhexadecahydro-1H-cyclopenta[a]phenanthren-17-yl)ethanone], the Emax at 10 µM on α1β2γ2 GABAA receptors lay in the range of 100 to 500%. The IC50 in assay [1] was 0.1 to 0.5 µM.

Regarding `C[C@@]1(O)CC[C@@]2(C)[C@@H](CC[C@@H]3[C@@H]2CC[C@]2(C)[C@@H](C(=O)Cn4cnc(C#N)c4)CC[C@@H]32)C1` [Compound 138], the “GABA (α1β2γ2) Qpatch in Ltk, % efficacy at 10 μM” value on α1β2γ2 GABAA receptors was “C (>500)”. In assay [1], this compound had an IC50 of 0.1 to 0.5 µM.

As to `C[C@@]1(O)CC[C@@]2(C)[C@@H](CC[C@@H]3[C@@H]2CC[C@]2(C)[C@@H](C(=O)Cn4nnc5ccc(Cl)c(F)c54)CC[C@@H]32)C1` [Compound 113], the “GABA (α1β2γ2) Qpatch in Ltk, % efficacy at 10 μM” value at α1β2γ2 GABAA receptors is listed as “B (>100-500)”. In addition, the IC50 in assay [1] lay in the range of 0.01 to 0.05 µM.

`C[C@@H](C(=O)[C@H]1CC[C@H]2[C@@H]3CC[C@@H]4C[C@](C)(O)CC[C@]4(C)[C@H]3CC[C@]12C)n1cc(C#N)cn1` [Compound 73, 1-((S)-1-((3R,5R,8R,9S,10S,13S,14S,17S)-3-hydroxy-3,10,13-trimethylhexadecahydro-1H-cyclopenta[a]phenanthren-17-yl)-1-oxopropan-2-yl)-1H-pyrazole-4-carbonitrile] had an IC50 in assay [1] of 0.01 to 0.05 µM.

In turn, `C[C@@H](C(=O)[C@H]1CC[C@H]2[C@@H]3CC[C@H]4C[C@](C)(O)CC[C@]4(C)[C@H]3CC[C@]12C)n1nccn1` [Compound 91, (S)-1-((3R,5S,8R,9S,10S,13S,14S,17S)-3-hydroxy-3,10,13-trimethylhexadecahydro-1H-cyclopenta[a]phenanthren-17-yl)-2-(2H-1,2,3-triazol-2-yl)propan-1-one] showed a 50% inhibitory concentration (IC50) in assay [1] of 0.05 to 0.1 µM.

For `C[C@H](C(=O)[C@H]1CC[C@H]2[C@@H]3CC[C@H]4C[C@](C)(O)CC[C@]4(C)[C@H]3CC[C@]12C)n1ccnn1` [Compound 92, (R)-1-((3R,5S,8R,9S,10S,13S,14S,17S)-3-hydroxy-3,10,13-trimethylhexadecahydro-1H-cyclopenta[a]phenanthren-17-yl)-2-(1H-1,2,3-triazol-1-yl)propan-1-one], in assay [1], the IC50 was above 0.5 µM.

`CC(C)(C(=O)[C@H]1CC[C@H]2[C@@H]3CC[C@H]4C[C@](C)(O)CC[C@]4(C)[C@H]3CC[C@]12C)n1nnc2ccccc21` [Compound 102, 2-(1H-benzo[d][1,2,3]triazol-1-yl)-1-((3R,5S,8R,9S,10S,13S,14S,17S)-3-hydroxy-3,10,13-trimethylhexadecahydro-1H-cyclopenta[a]phenanthren-17-yl)-2-methylpropan-1-one]: in assay [1], the IC50 is above 0.5 µM.

Regarding `CC(C(=O)[C@H]1CC[C@H]2[C@@H]3CC[C@@H]4C[C@](C)(O)CC[C@]4(C)[C@H]3CC[C@]12C)n1nccn1` (stereo in doubt) [Compound 56, (R)-1-((3R,5R,8R,9S,10S,13S,14S,17S)-3-hydroxyl-3,10,13-trimethylhexadecahydro-1H-cyclopenta[a]phenanthren-17-yl)-2-(2H-1,2,3-triazol-2-yl)propan-1-one], the half-maximal inhibitory concentration (IC50) in assay [1] lay in the range of 0.05 to 0.1 µM.

On to `C[C@@]1(O)CC[C@@]2(C)C(CC[C@H]3[C@@H]4CC[C@H](C(=O)Cn5nc6ccc(S(C)(=O)=O)cc6n5)[C@@]4(C)CC[C@@H]32)C1` (stereo in doubt) [Compound 104, 1-((3R,5R,8R,9S,10S,13S,14S,17S)-3-hydroxy-3,10,13-trimethylhexadecahydro-1H-cyclopenta[a]phenanthren-17-yl)-2-(5-(methylsulfonyl)-2H-benzo[d][1,2,3]triazol-2-yl)ethanone], for which the 50% inhibitory concentration (IC50) in assay [1] was below 0.01 µM.

On to `CC(C(=O)[C@H]1CC[C@H]2[C@@H]3CC[C@@H]4C[C@](C)(O)CC[C@]4(C)[C@H]3CC[C@]12C)n1nc2ccccc2n1` (stereo in doubt) [Compound 61, (S)-2-(2H-benzo[d][1,2,3]triazol-2-yl)-1-((3R,5R,8R,9S,10S,13S,14S,17S)-3-hydroxy-3,10,13-trimethylhexadecahydro-1H-cyclopenta[a]phenanthren-17-yl)propan-1-one], for which the IC50 in assay [1] is 0.1 to 0.5 µM.

`C[C@@]1(O)CC[C@@]2(C)[C@@H](CC[C@@H]3[C@@H]2CC[C@]2(C)[C@@H](C(=O)Cn4ncc5cc(F)ccc54)CC[C@@H]32)C1` [Compound 240]: the IC50 in assay [1] was in the range of 0.01 to 0.05 µM.

In assay [1], `C[C@@H](C(=O)[C@H]1CC[C@H]2[C@@H]3CC[C@@H]4C[C@](C)(O)CC[C@]4(C)[C@H]3CC[C@]12C)n1ccnn1` [Compound 59, (S)-1-((3R,5R,8R,9S,10S,13S,14S,17S)-3-hydroxy-3,10,13-trimethylhexadecahydro-1H-cyclopenta[a]phenanthren-17-yl)-2-(1H-1,2,3-triazol-1-yl)propan-1-one] gave an IC50 of 0.1 to 0.5 µM.
